In publication PMC10354095, “Insights into peculiar fungal LPMO family members holding a short C-terminal sequence reminiscent of phosphate binding motifs” (Scientific Reports, 2023):

Biological target: T1, CciAA9-X282-CBM1 (Coprinopsis cinerea, UniProt A8NCG7)
T1 construct: gene AA9-X282; AA9-X282-linker-CBM1; C-terminal poly-His tag; Pichia pastoris X33
Test: Amplex Red/HRP oxidase assay (H2O2 production)
Format: biochemical
Conditions: reductant (electron donor) at 50 uM, O2 as co-substrate; 1 uM enzyme; sodium phosphate 50 mM, pH 7.0

T1 sequence (A8NCG7 19-342): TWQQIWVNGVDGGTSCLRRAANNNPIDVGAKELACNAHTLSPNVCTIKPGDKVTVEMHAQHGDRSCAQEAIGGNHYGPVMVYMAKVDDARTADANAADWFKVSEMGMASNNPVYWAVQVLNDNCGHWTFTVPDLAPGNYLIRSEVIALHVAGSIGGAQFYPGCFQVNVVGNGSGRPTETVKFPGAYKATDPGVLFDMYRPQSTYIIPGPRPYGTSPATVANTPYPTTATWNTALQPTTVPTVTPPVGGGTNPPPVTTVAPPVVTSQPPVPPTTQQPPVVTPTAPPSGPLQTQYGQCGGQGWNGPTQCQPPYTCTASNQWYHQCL

O=C1O[C@H]([C@@H](O)CO)C(O)=C1O [ascorbic acid]
Amplex Red/HRP oxidase assay (H2O2 production): all AA9-X282 LPMOs displayed an oxidase (i.e. H2O2 producing) activity
